Measured values reported in US20090181910A1, “METHOD OF PREVENTION AND ALLEVIATION OF TOXICITY BY MODULATION OF IRF3” (priority 2006, published 2009).

Tests used:
RXRα [1] = system: RXRα; parameters: species or system mice; conditions: mouse, in vivo
[2] = system: hepatic LXR, FXR and PPARα target genes; type: cell-based, human
RXRα [3] = type: cell-based, Murine
Hes1 = assay: BMM Q-PCR: Hes1 mRNA; type: cell-based, Murine; conditions: FIG. 9b
ZF5 = assay: BMM Q-PCR: ZF5 mRNA; type: cell-based, Murine; conditions: polyI:C and LPS; data not shown
RXRα promoter region = assay: ChIP of Hes1 and HDAC1 in BMMs; type: cell-based, Murine; conditions: polyI:C 1 μg/ml 1, 3 and 6 hours; FIG. 9e,f
Procedure: FIG. 9: PolyI:C transcriptionally represses RXRα through recruitment of transcriptional repression machinery. a, BMMs were stimulated with media or polyI:C (1 μg/ml) for 2 hrs, followed by actinomycin D (ActD) (5 μg/ml) for 0, 15, 30, 60, 120 min. BMMs were stimulated with polyI:C (1 μg/ml) for 4 hrs or 8 hrs. RNA was analyzed by Q-PCR. b, Diagram of RXRα promoter based on promoter analysis software (MatInspector). BMMs were stimulated with LPS (10 ng/ml) or polyI:C (1 μg/ml) for 4 hrs. RNA was analyzed by Q-PCR. Wildtype, IRF3^−/− and IFNAR^−/− BMMs were stimulated with polyI:C (1 μg/ml) for 4 hrs. RNA was analyzed by Q-PCR. c, pCMV-RAW 264.7 cells (MT) or pCMV-Hes1-RAW 264.7 cells (Hes1) RNA was analyzed by Q-PCR. d, RAW264.7 cells transfected with siNS or siHes1 duplex oligos were stimulated with polyI:C (1 μg/ml) for 8 hours. RNA was analyzed by Q-PCR. e, f, BMMs were stimulated with polyI:C (1 μg/ml) for 1, 3 and 6 hours. Following stimulation, chromatin immunoprecipitation (ChIP) was performed with anti-Hes1 or anti-HDAC1 antibodies on sonicated samples, washed thoroughly and analyzed by PCR/agarose gel electrophoresis. PCR products on gel are quantified by ImageJ, normalized to Input. g, BMMs were pre-treated with Trichostatin A (TSA) (50 ng/ml) overnight and then stimulated with polyI:C (1 μg/ml) for 4 and 8 hrs. RNA was analyzed by Q-PCR. […]

CRBPII = assay: BMM Q-PCR: CRBPII; type: cell-based, Murine; conditions: LG268 10 nM with polyI:C 1 μg/ml; IRF3^−/− and IFNAR^−/− BMMs; FIG. 10a
UGT1A6 = system: UGT1A6; parameters: species or system mice; conditions: mouse, in vivo
Huh7 cells = assay: Rhodamine 123 assay, mitochondrial membrane potential; type: cell-based, human; conditions: Huh7 cells co-treated with ASA 20 μg/ml and polyI:C 1 μg/ml transfected, 24 hours; mock-transfected vs RXRα overexpressing
Procedure: FIG. 15: PolyI:C potentiation of ASA-induced mitochondrial damage. pBabe-Huh7 cells (Huh7_MT) and pBabe-RXRα-Huh7 cells (Huh7 RXRα) were stimulated with Control (DMSO) and ASA (20 μg/ml) with or without polyI:C (1 μg/ml, transfected) for 24 hours. Cells were treated with 5 μg/ml of rhodamine 123 (Invitrogen) for 30 min, trypsinized and resuspended in PBS. Flow cytometry was done to determine rhodamine 123 uptake.

Cyp3A11 [4] = conditions: mouse, in vivo
[5] = mouse, in vivo
[6] = mouse, in vivo; remark: listed apart in the source
[7] = Hendrix et al. 1993; cited from earlier work
CYP3A4 = assay: Huh7 Q-PCR: CYP3A4
Cyp1A2 = assay: Liver RNA Q-PCR, polyI:C/APAP-treated mice: Cyp1A2; conditions: polyI:C 100 μg i.v.; FIG. 1B
Cyp3A11 [8] = assay: Liver RNA Q-PCR, polyI:C/APAP-treated mice: Cyp3A11; conditions: polyI:C 100 μg i.v.; FIG. 1C

polyinosinic:polycytidylic acid [polyI:C]
IRF3 dependence of repression of RXRα and hepatic nuclear receptor target genes (RXRα [1]): IRF3 was critical for the repression of RXRα and hepatic nuclear receptor target genes | RXRα mRNA expression in liver (RXRα [1]; iv): significant reduction in RXRα mRNA expression | effect on LXR, FXR and PPARα-mediated induction of target genes [2]: inhibited | polyI:C-mediated inhibition of RXRα mRNA in knockout BMMs (RXRα [3]): defective in IRF3^−/− BMMs but not IFNAR^−/− BMMs | RXRα mRNA repression, extended time course (RXRα [3]; 1, 4 or 8 hrs, FIG. 8b): more potent repressor of RXRα mRNA than LPS | RXRα mRNA in BMMs (RXRα [3]; LPS 10 ng/ml or polyI:C 1 μg/ml, 4 hours, FIG. 8a): repressed RXRα mRNA | RXRα primary transcripts (RXRα [3]; polyI:C 4 or 8 hrs, exon-intron primers, FIG. 9a): strongly repressed | RXRα mRNA stability (RXRα [3]; polyI:C 2 hours then Actinomycin D, FIG. 9a): No significant differences | Hes1 mRNA (Hes1; LPS 10 ng/ml or polyI:C 1 μg/ml 4 hrs): potently induced | Hes1 induction in IRF3^−/− and IFNAR^−/− BMMs (Hes1; polyI:C 1 μg/ml 4 hrs): involves IRF3, but not Type I IFNs | ZF5 mRNA levels (ZF5): unaffected | recruitment of Hes1 and HDAC1 (ChIP) (RXRα promoter region): promotes specific recruitment of Hes1 and HDAC1 to the RXRα promoter region | LG268 induction of CRBPII (CRBPII): repressed by polyI:C in IFNAR^−/− BMMs but not IRF3^−/− BMMs | IRF3 dependence of UGT1A6 repression (UGT1A6): dependent on IRF3 | effect on ASA or PCN induction of UGT1A6 mRNA (UGT1A6): diminished | mitochondrial membrane potential (rhodamine 123) (Huh7 cells): loss of mitochondrial membrane potential in mock-transfected Huh7 cells co-treated with ASA and polyI:C, but not in Huh7 cells overexpressing RXRα | effect on ASA or PCN induction of CYP3A11 mRNA (Cyp3A11 [4]): diminished | effect on induction of CYP3A11 by PCN (Cyp3A11 [4]): blunted the induction of CYP3A11 by PCN | LCA-mediated serum ALT increase and liver damage [5]: failed to promote LCA-mediated increases of serum ALT levels or enhance liver damage | serum ALT levels, agent alone [5]: did not significantly increase serum ALT levels | hepatotoxicity, agent alone [6]: did not cause significant hepatotoxicity | toxicity of polyI:C [7]: can be taken at high dosages without any toxicity | rifampicin induction of CYP3A4 (CYP3A4; Huh7 cells with RXRα overexpression, FIG. 10e): no longer repressed CYP3A4 | rifampicin induction of CYP3A4 (CYP3A4; Huh7 cells, rifampicin 25 μM, transfected polyI:C 2 μg/ml): capable of repressing rifampicin induction | basal Cyp1A2 mRNA level in liver (Cyp1A2): potently repressed | basal Cyp3A11 mRNA level in liver (Cyp3A11 [8]): potently repressed
